Laboratory results taken from patent publication US20230257366A1, “SULFUR-CONTAINING ISOINDOLINE DERIVATIVE, AND PREPARATION METHOD THEREFOR AND MEDICAL USE THEREOF” (JIANGSU HENGRUI PHARMACEUTICALS CO., LTD., priority 2020, published 2023).

System: NCI-H929 cells
Experiment: NCI-H929 proliferation experiment (CellTiter-Glo, 5 days)
Format: cell-based
Details: Homo sapiens, 120 h, 5 days incubation, read-out: IC50 values for the inhibition of proliferation of NCI-H929 cells
Protocol: The following method was used to determine the inhibitory activity of the compounds of the present disclosure on the proliferation of NCI-H929 cells. The experimental method was briefly described as follows.
NCI-H929 cells (ATCC, CRL-9068) were cultured in a complete medium (RPMI 1640 medium (Hyclone, SH30809.01) containing 10% fetal bovine serum (Corning, 35-076-CV) and 0.05 mM 2-mercaptoethanol (Sigma, M3148)). On the first day of the experiment, NCI-H929 cells were seeded in a 96-well plate at a density of 6000 cells/well with a complete medium to form 100 μL of cell suspension per well, and 10 μL of test compound prepared in a complete medium and diluted in a gradient was added to each well. The compound was firstly dissolved in DMSO, with an initial concentration of 10 mM, and then subjected to serial dilution at a 5-fold concentration gradient for a total of 9 concentration points, with a blank control of 100% DMSO. Another 5 μL of the compound dissolved in DMSO was added to 95 μL of complete medium, i.e., the compound was diluted 20-fold with the complete medium. Finally the compound diluted in the complete medium at 10 μL/well was added to the cell suspension, wherein the final concentrations of the compound were 9 concentration points obtained by 5-fold gradient dilution starting from 50 μM. A blank control containing 0.5% DMSO was set. The plate was incubated in a cell incubator at 37° C. with 5% CO2 for 5 days. On the sixth day, the 96-well cell culture plate was taken out, added with a CellTiter-Glo® luminescent cell activity detect reagent (Promega, G7573) at 50 μL/well, left to stand at room temperature for 10 min, and read for the luminescence signal values using a multi-mode microplate reader (PerkinElmer, EnVision 2015). IC50 values for the inhibitory activity of the compounds were calculated using Graphpad Prism software, with the results shown in Table 1.

Row | IC50 | SMILES
1 | 0.18 nM | N#Cc1ccc(N2CCC(Sc3ccc(COc4cccc5c4CN([C@H]4CCC(=O)NC4=O)C5=O)c(F)c3F)CC2)c(F)c1 [Compound 10, (S)-4-(4-((4-(((2-(2,6-dioxopiperidin-3-yl)-1-oxoisoindolin-4-yl)oxy)methyl)-2,3-difluorophenyl)thio)piperidin-1-yl)-3-fluorobenzonitrile]
2 | 0.34 nM | N#Cc1ccc(N2CCC(Sc3cc(F)c(COc4cccc5c4CN([C@H]4CCC(=O)NC4=O)C5=O)c(F)c3)CC2)c(F)c1 [Compound 18, (S)-4-(4-((4-(((2-(2,6-dioxopiperidin-3-yl)-1-oxoisoindolin-4-yl)oxy)methyl)-3,5-difluorophenyl)thio)piperidin-1-yl)-3-fluorobenzonitrile]
3 | 0.13 nM | N#Cc1ccc(N2CCC(Sc3ncc(COc4cccc5c4CN([C@H]4CCC(=O)NC4=O)C5=O)cn3)CC2)c(F)c1 [Compound 7, (S)-4-(4-((5-(((2-(2,6-dioxopiperidin-3-yl)-1-oxoisoindolin-4-yl)oxy)methyl)pyrimidin-2-yl)thio)piperidin-1-yl)-3-fluorobenzonitrile]
4 | 0.1 nM | N#Cc1ccc(N2CCC(Sc3ccc(COc4cccc5c4CN([C@H]4CCC(=O)NC4=O)C5=O)cc3)CC2)c(F)c1 [Compound 3, (S)-4-(4-((4-(((2-(2,6-dioxopiperidin-3-yl)-1-oxoisoindolin-4-yl)oxy)methyl)phenyl)thio)piperidin-1-yl)-3-fluorobenzonitrile]
5 | 1.13 nM | N#Cc1ccc(N2CC(Sc3ccc(COc4cccc5c4CN([C@H]4CCC(=O)NC4=O)C5=O)cc3)C2)c(F)c1 [Compound 16, (S)-4-(3-((4-(((2-(2,6-dioxopiperidin-3-yl)-1-oxoisoindolin-4-yl)oxy)methyl)phenyl)thio)azetidin-1-yl)-3-fluorobenzonitrile]
6 | 0.75 nM | N#Cc1ccc(N2CCC(Sc3ccc(COc4cccc5c4CN([C@H]4CCC(=O)NC4=O)C5=O)cn3)C2)c(F)c1 (stereo partly drawn) [Compound 15, 4-(3-((5-(((2-((S)-2,6-dioxopiperidin-3-yl)-1-oxoisoindolin-4-yl)oxy)methyl)pyridin-2-yl)thio)pyrrolidin-1-yl)-3-fluorobenzonitrile]
7 | 4.36 nM | N#Cc1ccc(N2CCC(Sc3ccc(COc4cccc5c4C(=O)N(C4CCC(=O)NC4=O)C5=O)cc3)CC2)c(F)c1 (centres unmarked) [Compound 2, 4-(4-((4-(((2-(2,6-dioxopiperidin-3-yl)-1,3-dioxoisoindolin-4-yl)oxy)methyl)phenyl)thio)piperidin-1-yl)-3-fluorobenzonitrile]
8 | 0.21 nM | N#Cc1ccc(N2CCC(Sc3ccc(COc4cccc5c4CN([C@H]4CCC(=O)NC4=O)C5=O)c(F)n3)CC2)c(F)c1 [Compound 17, (S)-4-(4-((5-(((2-(2,6-dioxopiperidin-3-yl)-1-oxoisoindolin-4-yl)oxy)methyl)-6-fluoropyridin-2-yl)thio)piperidin-1-yl)-3-fluorobenzonitrile]
9 | 0.61 nM | N#Cc1ccc(N2CCC(Sc3c(F)cc(COc4cccc5c4CN([C@H]4CCC(=O)NC4=O)C5=O)cc3F)CC2)c(F)c1 [Compound 12, (S)-4-(4-((4-(((2-(2,6-dioxopiperidin-3-yl)-1-oxoisoindolin-4-yl)oxy)methyl)-2,6-difluorophenyl)thio)piperidin-1-yl)-3-fluorobenzonitrile]
10 | 0.17 nM | N#Cc1ccc(N2CCC(Sc3ccc(COc4cccc5c4CN([C@H]4CCC(=O)NC4=O)C5=O)cc3F)CC2)c(F)c1 [Compound 4, (S)-4-(4-((4-(((2-(2,6-dioxopiperidin-3-yl)-1-oxoisoindolin-4-yl)oxy)methyl)-2-fluorophenyl)thio)piperidin-1-yl)-3-fluorobenzonitrile]
11 | 0.34 nM | N#Cc1ccc(N2CCC(Sc3ccc(COc4cccc5c4CN(C4CCC(=O)NC4=O)C5=O)cc3)CC2)c(F)c1 (centres unmarked) [Compound 1, 4-(4-((4-(((2-(2,6-dioxopiperidin-3-yl)-1-oxoisoindolin-4-yl)oxy)methyl)phenyl)thio)piperidin-1-yl)-3-fluorobenzonitrile]
12 | 0.9 nM | N#Cc1ccc(N2CCC(Sc3ccc(COc4cccc5c4CN([C@H]4CCC(=O)NC4=O)C5=O)nc3)CC2)c(F)c1 [Compound 9, (S)-4-(4-((6-(((2-(2,6-dioxopiperidin-3-yl)-1-oxoisoindolin-4-yl)oxy)methyl)pyridin-3-yl)thio)piperidin-1-yl)-3-fluorobenzonitrile]
13 | 0.27 nM | N#Cc1ccc(N2CCC(Sc3ccc(COc4cccc5c4CN([C@H]4CCC(=O)NC4=O)C5=O)cc3Cl)CC2)c(F)c1 [Compound 14, (S)-4-(4-((2-chloro-4-(((2-(2,6-dioxopiperidin-3-yl)-1-oxoisoindolin-4-yl)oxy)methyl)phenyl)thio)piperidin-1-yl)-3-fluorobenzonitrile]
14 | 0.22 nM | N#Cc1ccc(N2CCC(Sc3cc(F)c(COc4cccc5c4CN([C@H]4CCC(=O)NC4=O)C5=O)cc3F)CC2)c(F)c1 [Compound 11, (S)-4-(4-((4-(((2-(2,6-dioxopiperidin-3-yl)-1-oxoisoindolin-4-yl)oxy)methyl)-2,5-difluorophenyl)thio)piperidin-1-yl)-3-fluorobenzonitrile]
15 | 0.08 nM | N#Cc1ccc(N2CCC(Sc3ccc(COc4cccc5c4CN([C@H]4CCC(=O)NC4=O)C5=O)c(F)c3)CC2)c(F)c1 [Compound 5, (S)-4-(4-((4-(((2-(2,6-dioxopiperidin-3-yl)-1-oxoisoindolin-4-yl)oxy)methyl)-3-fluorophenyl)thio)piperidin-1-yl)-3-fluorobenzonitrile]
16 | 1.78 nM | Cc1nc(SC2CCN(c3ccc(C#N)cc3F)CC2)ccc1COc1cccc2c1CN([C@H]1CCC(=O)NC1=O)C2=O [Compound 13, (S)-4-(4-((5-(((2-(2,6-dioxopiperidin-3-yl)-1-oxoisoindolin-4-yl)oxy)methyl)-6-methylpyridin-2-yl)thio)piperidin-1-yl)-3-fluorobenzonitrile]
17 | 0.28 nM | N#Cc1ccc(N2CCC(Sc3ccc(COc4cc(F)cc5c4CN([C@H]4CCC(=O)NC4=O)C5=O)cn3)CC2)c(F)c1 [Compound 8, (S)-4-(4-((5-(((2-(2,6-dioxopiperidin-3-yl)-6-fluoro-1-oxoisoindolin-4-yl)oxy)methyl)pyridin-2-yl)thio)piperidin-1-yl)-3-fluorobenzonitrile]
